Assays:
[1] = tested on: cord blood CD34+ cells; assay: Expansion of CD34+/CD41+ megakaryocytic progenitors from cord blood CD34+ cells; type: cell-based, human; conditions: 39° C. + PIC 35 nM; 14 days; ACF + OMPC; FIG. 4
Protocol: Human cord blood (CB) was collected after obtaining written informed consent from donors, following our institutional Research Ethics Committee guidelines. Mononuclear cells (MNCs) were first separated over a Ficoll-Hypaque™ density gradient (GE Healthcare), then cryopreserved at −180° C. in Cryostor CS10™ medium ([…] Technologies). Thawed MNCs from six to eight CB were pooled before CD34 isolation. CB CD34+ cells were enriched by positive selection using the EasySep™ CD34 enrichment kit, according to the manufacturer's instructions ([…] Technologies). […]
(§1) Cellular counts and viability were determined by adding Solution 18 (Acridine Orange and DAPI solution, ChemomMetec) and using NucleoCounter™ NC-250 for detection (ChemomMetec).
For cells expanded in conditions favoring differentiation towards the MK lineage, surface markers were detected using the following antibodies: CD34-FITC, CD41a-APC and CD42b-PE. […] All samples were analyzed on an Accuri™ C6 flow cytometer (BD Biosciences), and raw data were analyzed with FCS Express 5 Flow Research Edition software from at least 15 000 viable cell events acquired for each sample. […]
Cellular counts and viability were determined as described in Example 6.5. […]

[2] = tested on: Human CB CD34+-enriched cells; assay: Culture of CB CD34+-enriched hematopoietic stem cells in conditions favoring self-renewal; type: cell-based; conditions: for Percentage of phenotype CD34+ / Percentage of phenotype CD34+/CD38− / Percentage of phenotype CD34+/CD38−/CD45RA− / Percentage of phenotype CD34+/CD45RA− / Percentage of phenotype CD38− / Percentage of phenotype CD45RA−: 14 days
Protocol: Human cord blood (CB) was collected after obtaining written informed consent from donors, following our institutional Research Ethics Committee guidelines. Mononuclear cells (MNCs) were first separated over a Ficoll-Hypaque™ density gradient (GE Healthcare), then cryopreserved at −180° C. in Cryostor CS10™ medium ([…] Technologies). Thawed MNCs from six to eight CB were pooled before CD34 isolation. CB CD34+ cells were enriched by positive selection using the EasySep™ CD34 enrichment kit, according to the manufacturer's instructions ([…] Technologies).
Cultures were maintained in a humidified atmosphere with 5% CO2 at 37° C. or 39° C., as indicated in the Examples. Cells were diluted at 500 000 cells/mL with fresh medium every 3 to 4 days.
as §1
For cells expanded in conditions favoring self-renewal, surface markers were detected using the following antibodies: CD34-PE, CD45RA-FITC, and CD38-BV421. All antibodies were purchased from BD Biosciences, except for CD34-PE which was purchased from Immunotech. Labeling of aldehyde dehydrogenase (ALDH)-positive cells was performed using the ALDEFLUOR™ Kit ([…] Technologies), according to the manufacturer's instructions. 7AAD was used as a viability dye. All samples were analyzed on a FACS-Cy Flow ML system (Sysmex), and raw data were analyzed with FCS Express 5 Flow Research Edition software from at least 15 000 viable cell events acquired for each sample.
Cellular counts and viability were determined as described in Example 6.5.

[3] = 37° C. + PIC 35 nM, ACF + CC110
[4] = 37° C. + PIC 35 nM, ACF + CC110 (Table 5)
[5] = 37° C. + PIC 35 nM, ACF + HM (Table 5)
[6] = 37° C. + PIC 35 nM, SFEM + CC110
[7] = 37° C. + PIC 35 nM, SFEM II + CC110
[8] = 37° C. + PIC 35 nM, SFEM II + HM
[9] = 39° C. + PIC 35 nM, ACF + CC110
[10] = 39° C. + PIC 35 nM, ACF + CC110 (Table 5)
[11] = 39° C. + PIC 35 nM, ACF + HM (Table 5)
[12] = 39° C. + PIC 35 nM, SFEM + CC110
[13] = 39° C. + PIC 35 nM, SFEM II + CC110
[14] = 39° C. + PIC 35 nM, SFEM II + HM

Cl.Cn1nnc(-c2ccc3c(c2)[nH]c2nc(Cc4ccccc4)nc(N[C@H]4CC[C@H](N)CC4)c23)n1 [PIC, (1r,4r)-N1-(2-benzyl-7-(2-methyl-2H-tetrazol-5-yl)-9H-pyrimido[4,5-b]indol-4-yl)cyclohexane-1,4-diamine hydrochloride]
combined use of mild hyperthermia and PIC on expansion of CD34+/CD41+ cells [1]: synergistic effect
combined use of mild hyperthermia and PIC on expansion of CD34+/ALDH^Bright cells ([2]; 39° C. + PIC 35 nM, 21 days, ACF + HM, FIG. 29): synergistic expansion
Percentage of phenotype CD34+ [2, 3]: 48.9%
Percentage of phenotype CD34+/CD38− [2, 3]: 30.3%
Percentage of phenotype CD34+/CD38−/CD45RA− [2, 3]: 10%
Percentage of phenotype CD34+/CD45RA− [2, 3]: 16.36%
Percentage of phenotype CD38− [2, 3]: 14.8%
Percentage of phenotype CD45RA− [2, 3]: 59.2%
Percentage of phenotype CD34+ [2, 4]: 50.98%
Percentage of phenotype CD34+/CD45RA− [2, 4]: 11.83%
Percentage of phenotype CD45RA− [2, 4]: 76.09%
Percentage of phenotype CD34+ ([2]; 37° C. + PIC 35 nM, ACF + HM): 51.5%
Percentage of phenotype CD34+/CD38− ([2]; 37° C. + PIC 35 nM, ACF + HM): 32.4%
Percentage of phenotype CD34+/CD38−/CD45RA− ([2]; 37° C. + PIC 35 nM, ACF + HM): 14.7%
Percentage of phenotype CD34+/CD45RA− ([2]; 37° C. + PIC 35 nM, ACF + HM): 22.4%
Percentage of phenotype CD38− ([2]; 37° C. + PIC 35 nM, ACF + HM): 12.05%
Percentage of phenotype CD45RA− ([2]; 37° C. + PIC 35 nM, ACF + HM): 53.4%
Percentage of phenotype CD34+ [2, 5]: 44.62%
Percentage of phenotype CD34+/CD45RA− [2, 5]: 7.67%
Percentage of phenotype CD45RA− [2, 5]: 77.44%
Percentage of phenotype CD34+ [2, 6]: 42.68%
Percentage of phenotype CD34+/CD45RA− [2, 6]: 6.96%
Percentage of phenotype CD45RA− [2, 6]: 78.72%
Percentage of phenotype CD34+ ([2]; 37° C. + PIC 35 nM, SFEM + HM): 37.4%
Percentage of phenotype CD34+/CD45RA− ([2]; 37° C. + PIC 35 nM, SFEM + HM): 6.66%
Percentage of phenotype CD45RA− ([2]; 37° C. + PIC 35 nM, SFEM + HM): 75.74%
Percentage of phenotype CD34+ [2, 7]: 33.38%
Percentage of phenotype CD34+/CD45RA− [2, 7]: 6.09%
Percentage of phenotype CD45RA− [2, 7]: 77.73%
Percentage of phenotype CD34+ [2, 8]: 30.82%
Percentage of phenotype CD34+/CD45RA− [2, 8]: 6.11%
Percentage of phenotype CD45RA− [2, 8]: 77.27%
Percentage of phenotype CD34+ [2, 9]: 43.7%
Percentage of phenotype CD34+/CD38− [2, 9]: 24.2%
Percentage of phenotype CD34+/CD38−/CD45RA− [2, 9]: 14.1%
Percentage of phenotype CD34+/CD45RA− [2, 9]: 23.05%
Percentage of phenotype CD38− [2, 9]: 14.45%
Percentage of phenotype CD45RA− [2, 9]: 40.85%
Percentage of phenotype CD34+ [2, 10]: 43.73%
Percentage of phenotype CD34+/CD45RA− [2, 10]: 18.73%
Percentage of phenotype CD45RA− [2, 10]: 59.72%
Percentage of phenotype CD34+ ([2]; 39° C. + PIC 35 nM, ACF + HM): 40.95%
Percentage of phenotype CD34+/CD38− ([2]; 39° C. + PIC 35 nM, ACF + HM): 22.9%
Percentage of phenotype CD34+/CD38−/CD45RA− ([2]; 39° C. + PIC 35 nM, ACF + HM): 15.7%
Percentage of phenotype CD34+/CD45RA− ([2]; 39° C. + PIC 35 nM, ACF + HM): 24.8%
Percentage of phenotype CD38− ([2]; 39° C. + PIC 35 nM, ACF + HM): 12%
Percentage of phenotype CD45RA− ([2]; 39° C. + PIC 35 nM, ACF + HM): 35.2%
Percentage of phenotype CD34+ [2, 11]: 44.82%
Percentage of phenotype CD34+/CD45RA− [2, 11]: 17.68%
Percentage of phenotype CD45RA− [2, 11]: 59.67%
Percentage of phenotype CD34+ [2, 12]: 45.36%
Percentage of phenotype CD34+/CD45RA− [2, 12]: 12.23%
Percentage of phenotype CD45RA− [2, 12]: 70.13%
Percentage of phenotype CD34+ ([2]; 39° C. + PIC 35 nM, SFEM + HM): 41.95%
Percentage of phenotype CD34+/CD45RA− ([2]; 39° C. + PIC 35 nM, SFEM + HM): 12.39%
Percentage of phenotype CD45RA− ([2]; 39° C. + PIC 35 nM, SFEM + HM): 69.88%
Percentage of phenotype CD34+ [2, 13]: 37.9%
Percentage of phenotype CD34+/CD45RA− [2, 13]: 15.03%
Percentage of phenotype CD45RA− [2, 13]: 63.9%
Percentage of phenotype CD34+ [2, 14]: 37.56%
Percentage of phenotype CD34+/CD45RA− [2, 14]: 15.27%
Percentage of phenotype CD45RA− [2, 14]: 63.45%
